Results from patent JP2014001205A, “動物の寄生虫防除剤” (Nissan Chemical Corp, priority 2012, dated 2014).

Tests used:
[1] = system: cat flea (Ctenocephalides felis) adults [ネコノミ(Ctenocephalides felis)成虫]; experiment: Efficacy test against cat flea (Test Example 1), glass container film contact; assay type: in vivo; conditions: 96 h, 10μg/cm2, 5 adults (mixed sex), 25℃, 4 days, duplicate, read-out: efficacy (number of insects with abnormal behaviour due to compound / number released × 100)
[2] = system: American dog tick (Dermacentor variabilis) first nymphs [American dog tick(Dermacentor variabilis)第1若虫]; experiment: Efficacy test against American dog tick (Test Example 2), glass container film contact; assay type: in vivo; conditions: 96 h, 10μg/cm2, 5 first nymphs (mixed sex), 25℃, 4 days, duplicate, read-out: efficacy (number with abnormal behaviour due to compound / number released × 100)

Row | Structure (SMILES) | pest or weed control at 10 µg/cm2 [1] | pest or weed control at 10 µg/cm2 [2]
1 | CSC[C@@H](C)C(=O)N(C)c1cn(-c2cccnc2)nc1Cl [1−039(S)−(−)] | ≥ 80% | ≥ 80%
2 | CCCC(C)C(=O)N(CC)c1cn(-c2cccnc2)nc1Cl (centres unmarked) [1−483] | ≥ 80% | ≥ 80%
3 | CCN(C(=O)CS(C)(=O)=O)c1cn(-c2cccnc2)nc1Cl [1−080] | ≥ 80% | ≥ 80%
4 | CCN(C(=O)CSC)c1cn(-c2cccnc2)nc1Cl [1−079] | ≥ 80% | ≥ 80%
5 | CCc1nn(-c2cccnc2)cc1NC(=O)OC(C)(C)C [1−435] | ≥ 80% | ≥ 80%
6 | CCN(C(=O)C=CSC)c1cn(-c2cccnc2)nc1Cl (single isomer, unassigned) [1−071] | ≥ 80% | ≥ 80%
7 | CCCSC(C)C(=O)N(CC)c1cn(-c2cccnc2)nc1Cl (centres unmarked) [1−246] | ≥ 80% | ≥ 80%
8 | CCN(C(=O)[C@H](C)CS(C)(=O)=O)c1cn(-c2cccnc2)nc1Cl [1−050(S)−(+)] | ≥ 80% | ≥ 80%
9 | CCN(C(=O)[C@H](C)CSC)c1cn(-c2cccnc2)nc1Cl [1−048(S)−(−), (S)−(−)−N−{3−クロロ−1−(ピリジン−3−イル)−1H−ピラゾール−4−イル}−N−エチル−2−メチル−3−(メチルチオ)プロパンアミド] | ≥ 80% | 
10 | CCN(C(=O)COC(C)=O)c1cn(-c2cccnc2)nc1Cl [1−082] | ≥ 80% | ≥ 80%
11 | CCN(C(=O)NCC(F)(F)F)c1cn(-c2cccnc2)nc1Br [1−587] | ≥ 80% | 
